# In publication PMC6130634 (Pharmaceutical Biology, 2017):
# Columns and labels:
# [1] = Oral pharmacokinetics of ChA in beagle plasma; assay type: in vivo, beagles; conditions: dog, 60 mg/kg
# [2] = Stability of ChA in beagle urine under various storage conditions; assay type: in vitro ADME
# [3] = Stability of ChA in beagle faeces under various storage conditions; assay type: in vitro ADME
compound,measurement,setting,value
"O=C(/C=C/c1ccc(O)c(O)c1)O[C@@H]1C[C@](O)(C(=O)O)C[C@@H](O)[C@H]1O [ChA, Chlorogenic acid]",AUC(0-inf),[1],6320 ± 1850 ng·h/mL
same,AUC(0-t),[1],5590 ± 1410 ng·h/mL
same,Cmax,[1],2350 ± 483 ng/mL
same,Tmax,[1],1.86 ± 0.499 h
same,half-life,[1],0.911 ± 0.187 h
same,time ChA was stable,"[2]; processed urine, 4 °C",at least 8 h
same,time ChA was stable,"[2]; urine, room temperature",≥ 6 h
same,time ChA was stable,"[2]; urine, −70 °C",at least 20 d
same,time ChA was stable,"[3]; faeces, room temperature",≥ 6 h
same,time ChA was stable,"[3]; faeces, −70 °C",≥ 170 h
same,time ChA was stable,"[3]; processed faeces, 4 °C",at least 8 h
